The source of these data is patent US20110144159A1, “ETHER BENZYLIDENE PIPERIDINE ARYL CARBOXAMIDE COMPOUNDS USEFUL AS FAAH INHIBITORS” (Pfizer Inc, priority 2008, published 2011).

The target in the assay is T1, Human FAAH (Homo sapiens, UniProt O00519).
T1 construct: made in house
T1 sequence (O00519 32-579 limits assumed): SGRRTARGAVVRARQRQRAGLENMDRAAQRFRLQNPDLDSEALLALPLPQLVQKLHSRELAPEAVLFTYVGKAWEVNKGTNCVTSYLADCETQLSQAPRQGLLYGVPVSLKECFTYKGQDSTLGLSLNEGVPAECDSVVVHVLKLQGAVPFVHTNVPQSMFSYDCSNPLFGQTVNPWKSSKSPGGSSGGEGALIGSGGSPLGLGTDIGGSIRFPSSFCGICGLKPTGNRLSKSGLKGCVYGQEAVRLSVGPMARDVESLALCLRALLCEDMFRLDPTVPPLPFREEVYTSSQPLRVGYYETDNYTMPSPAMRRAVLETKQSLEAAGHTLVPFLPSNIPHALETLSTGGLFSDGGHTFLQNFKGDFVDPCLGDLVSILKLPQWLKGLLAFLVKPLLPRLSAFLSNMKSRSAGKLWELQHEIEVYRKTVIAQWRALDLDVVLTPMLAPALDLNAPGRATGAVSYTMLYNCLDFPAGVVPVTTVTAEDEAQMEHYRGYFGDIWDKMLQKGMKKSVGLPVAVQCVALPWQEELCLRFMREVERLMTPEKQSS
Nature of the assay: FAAH assay (glutamate dehydrogenase-coupled, oleamide substrate, absorbance at 340 nm). In kind it is biochemical. The conditions noted are these: irreversible inhibition potency. How it is done:
A FAAH assay may be carried out in 384-well clear polystyrene plates in a total volume of 50 μl per well. All percents are by volume. To each well was placed the reaction mixture (40 μl) containing 1-4 nM FAAH, 50 mM NaPi, pH 7.4, 3 mM α-ketoglutarate, 0.15 mM NADH, 7.5 U/ml glutamate dehydrogenase, 2 mM ADP, 1 mM EDTA, and 0.1% Triton X-100 (The concentration shown for each component was the final concentration in the assay). To this mixture was added 5 μl of a compound of Examples 1 to 20 at various concentrations prepared in 50% DMSO (or 5 μl 50% DMSO for controls). This was immediately followed by the addition of 5 μl oleamide (500 μM) dissolved in 75% EtOH/25% DMSO and the reaction mixture was mixed for 1.5 min. The final concentrations of DMSO and EtOH in the assay are each 7.5%. The reactions was then incubated at 30° C. and the absorbance at 340 nm was collected over a period of 90 min with readings taken in 30-second intervals using SpectraMax Plus^384 Microplate Spectrophotometer (Molecular Devices, Sunnyvale, Calif.). Human FAAH used in the assay was prepared as described in the patent application WO 2006/067613. The purity of the enzyme used was greater than 98% based on an analysis by SDS-polyacrylamide gel electrophoresis followed by Coomassie Blue staining.
Initial velocity data (V) is obtained from the slopes of the initial progressive curves. They are plotted as a function of substrate concentration and fit to the Michaelis-Menten equation (1) using Prism (GraphPad Software, Inc., San Diego, Calif.) software to obtain Km and Vmax values.
To obtain potencies of irreversible inhibitors, progressive curves consistent with first order inhibition kinetics (two-step irreversible inhibition mechanism) are fit to equation (2) by nonlinear least squares regressions to determine kobs values at each inhibitor concentration, where [P]t is the absorbance at time t, V0 is a constant related to the steady state rate of the uninhibited reaction, and kobs is the first order rate constant for enzyme inactivation. The inhibitor dissociation constant (Ki) and the first order rate
constant of enzyme inactivation at infinite inhibitor concentration (kinact) are then obtained by fitting the kobs vs. [I] curves to equation (3).

As to `O=C(Nc1cccnn1)N1CCC(=Cc2cccc(OCCc3cccnc3)c2)CC1` [Example 84, N-pyridazin-3-yl-4-[3-(2-pyridin-3-ylethoxy)benzylidene]piperidine-1-carboxamide], the “hFAAH KInact/K” value worked out at 10747 M⁻¹ s⁻¹.

For the compound `CC(Cc1ccccc1)Oc1cccc(C=C2CCN(C(=O)Nc3cccnn3)CC2)c1` (centres unmarked) [Example 91, 4-[3-(1-methyl-2-phenylethoxy)benzylidene]-N-pyridazin-3-ylpiperidine-1-carboxamide], the “hFAAH KInact/K” value came out at 7398 M⁻¹ s⁻¹.

In the case of `O=C(Nc1cccnc1)N1CCC(=Cc2cccc(OC3CC3)c2)CC1` [Example 29, 4-[3-(cyclopropyloxy)benzylidene]-N-pyridin-3-ylpiperidine-1-carboxamide], the “hFAAH KInact/K” value turned out to be 1300 M⁻¹ s⁻¹.

On to `Cc1cc(COc2cccc(C=C3CCN(C(=O)Nc4cccnn4)CC3)c2)nn1C` [Example 70, 4-{3-[(1,5-dimethyl-1H-pyrazol-3-yl)methoxy]benzylidene}-N-pyridazin-3-ylpiperidine-1-carboxamide], for which the “hFAAH KInact/K” value came to 116 M⁻¹ s⁻¹.

With `Cc1cccc(COc2cccc(C=C3CCN(C(=O)Nc4cccnn4)CC3)c2)n1` [Example 67, 4-{3-[(6-methylpyridin-2-yl)methoxy]benzylidene}-N-pyridazin-3-ylpiperidine-1-carboxamide], the “hFAAH KInact/K” value is 370 M⁻¹ s⁻¹.

Consider `O=C(Nc1cccnn1)N1CCC(=Cc2cccc(OCCN3CCCCCC3)c2)CC1` [Example 80, 4-[3-(2-azepan-1-ylethoxy)benzylidene]-N-pyridazin-3-ylpiperidine-1-carboxamide], for which the “hFAAH KInact/K” value is 325 M⁻¹ s⁻¹.

Regarding `Cc1cc(COc2cccc(C=C3CCN(C(=O)Nc4cccnn4)CC3)c2)no1` [Example 54, 4-{3-[(5-methylisoxazol-3-yl)methoxy]benzylidene}-N-pyridazin-3-ylpiperidine-1-carboxamide], the “hFAAH KInact/K” value is 1880 M⁻¹ s⁻¹.

`COc1cccc(C=C2CCN(C(=O)Nc3cccnn3)CC2)c1` [Example 6, 4-(3-methoxybenzylidene)-N-pyridazin-3-ylpiperidine-1-carboxamide]: the “hFAAH KInact/K” value was 1480 M⁻¹ s⁻¹.

Consider `O=C(Nc1cccnn1)N1CCC(=Cc2cccc(OCc3ccc(C(F)(F)F)cn3)c2)CC1` [Example 73, N-pyridazin-3-yl-4-(3-{[5-(trifluoromethyl)pyridin-2-yl]methoxy}benzylidene)piperidine-1-carboxamide], for which the “hFAAH KInact/K” value was 1470 M⁻¹ s⁻¹.

`CCC(C)Oc1cccc(C=C2CCN(C(=O)Nc3cccnn3)CC2)c1` (centres unmarked) [Example 22, 4-(3-sec-butoxybenzylidene)-N-pyridazin-3-ylpiperidine-1-carboxamide]: the “hFAAH KInact/K” value stood at 1260 M⁻¹ s⁻¹.

Regarding `O=C(Nc1cccnn1)N1CCC(=Cc2cccc(OC3CCOCC3)c2)CC1` [Example 44, N-pyridazin-3-yl-4-[3-(tetrahydro-2H-pyran-4-yloxy)benzylidene]piperidine-1-carboxamide], the “hFAAH KInact/K” value was found to be 563 M⁻¹ s⁻¹.

Consider `O=C(Nc1cccnn1)N1CCC(=Cc2cccc(OCCCc3cnoc3)c2)CC1` [Example 94, 4-[3-(3-isoxazol-4-ylpropoxy)benzylidene]-N-pyridazin-3-ylpiperidine-1-carboxamide], for which the “hFAAH KInact/K” value stood at 27713 M⁻¹ s⁻¹.

Regarding `CCC(C)COc1cccc(C=C2CCN(C(=O)Nc3cccnn3)CC2)c1` (centres unmarked) [Example 50, 4-[3-(2-methylbutoxy)benzylidene]-N-pyridazin-3-ylpiperidine-1-carboxamide], the “hFAAH KInact/K” value was 4500 M⁻¹ s⁻¹.

Consider `COC(C)(C)CCOc1cccc(C=C2CCN(C(=O)Nc3cccnn3)CC2)c1` [Example 49, 4-[3-(3-methoxy-3-methylbutoxy)benzylidene]-N-pyridazin-3-ylpiperidine-1-carboxamide], for which the “hFAAH KInact/K” value is 1290 M⁻¹ s⁻¹.

On to `O=C(Nc1cccnn1)N1CCC(=Cc2ccc3c(c2)OCO3)CC1` [Example 3, 4-(1,3-benzodioxol-5-ylmethylene)-N-pyridazin-3-ylpiperidine-1-carboxamide], for which the “hFAAH KInact/K” value is 2870 M⁻¹ s⁻¹.

`CC(C)C(C)Oc1cccc(C=C2CCN(C(=O)Nc3cccnn3)CC2)c1` (centres unmarked) [Example 61, 4-[3-(1,2-dimethylpropoxy)benzylidene]-N-pyridazin-3-ylpiperidine-1-carboxamide]: the “hFAAH KInact/K” value is 1420 M⁻¹ s⁻¹.

Regarding `CC(C)(F)CCOc1cccc(C=C2CCN(C(=O)Nc3cccnn3)CC2)c1` [Example 95, 4-[3-(3-fluoro-3-methylbutoxy)benzylidene]-N-pyridazin-3-ylpiperidine-1-carboxamide], the “hFAAH KInact/K” value worked out at 3869 M⁻¹ s⁻¹.

In the case of `O=C(Nc1cccnn1)N1CCC(=Cc2cccc(OC(F)(F)F)c2)CC1` [Example 5, N-pyridazin-3-yl-4-[3-(trifluoromethoxy)benzylidene]piperidine-1-carboxamide], the “hFAAH KInact/K” value was determined as 2250 M⁻¹ s⁻¹.

For the compound `O=C(Nc1cccnn1)N1CCC(=Cc2cccc(OC3CCC(C(F)(F)F)CC3)c2)CC1` (centres unmarked) [Example 97, N-pyridazin-3-yl-4-(3-{[4-(trifluoromethyl)cyclohexyl]oxy}benzylidene)piperidine-1-carboxamide], the “hFAAH KInact/K” value stood at 3238 M⁻¹ s⁻¹.

In the case of `O=C(Nc1cccnc1)N1CCC(=Cc2cccc(OC3CCCC3)c2)CC1` [Example 11, 4-[3-(cyclopentyloxy)benzylidene]-N-pyridin-3-ylpiperidine-1-carboxamide], the “hFAAH KInact/K” value came out at 1900 M⁻¹ s⁻¹.

Regarding `Cc1noc(C)c1COc1cccc(C=C2CCN(C(=O)Nc3cccnn3)CC2)c1` [Example 65, 4-{3-[(3,5-dimethylisoxazol-4-yl)methoxy]benzylidene}-N-pyridazin-3-ylpiperidine-1-carboxamide], the “hFAAH KInact/K” value was 130 M⁻¹ s⁻¹.

Consider `O=C(Nc1cccnn1)N1CCC(=Cc2cccc(OCC3CCC(C(F)(F)F)CC3)c2)CC1` (centres unmarked) [Example 103, N-pyridazin-3-yl-4-(3-{[4-(trifluoromethyl)cyclohexyl]methoxy}benzylidene)piperidine-1-carboxamide], for which the “hFAAH KInact/K” value came to 1537 M⁻¹ s⁻¹.

For the compound `CCC(CC)Oc1cccc(C=C2CCN(C(=O)Nc3cccnc3)CC2)c1` [Example 14, 4-[3-(1-ethylpropoxy)benzylidene]-N-pyridin-3-ylpiperidine-1-carboxamide], the “hFAAH KInact/K” value was 718 M⁻¹ s⁻¹.

On to `COC(COc1cccc(C=C2CCN(C(=O)Nc3cccnn3)CC2)c1)c1ccccc1` (centres unmarked) [Example 56, 4-[3-(2-methoxy-2-phenylethoxy)benzylidene]-N-pyridazin-3-ylpiperidine-1-carboxamide], for which the “hFAAH KInact/K” value came out at 149 M⁻¹ s⁻¹.

For `O=C(Nc1cccnn1)N1CCC(=Cc2cccc(OCC3CCOCC3)c2)CC1` [Example 76, N-pyridazin-3-yl-4-[3-(tetrahydro-2H-pyran-4-ylmethoxy)benzylidene]piperidine-1-carboxamide], the “hFAAH KInact/K” value worked out at 2548 M⁻¹ s⁻¹.

Regarding `O=C(Nc1cccnn1)N1CCC(=Cc2cccc(OCC3CC=CCC3)c2)CC1` (centres unmarked) [Example 57, 4-[3-(cyclohex-3-en-1-ylmethoxy)benzylidene]-N-pyridazin-3-ylpiperidine-1-carboxamide], the “hFAAH KInact/K” value turned out to be 16300 M⁻¹ s⁻¹.

On to `COCCOc1cccc(C=C2CCN(C(=O)Nc3cccnn3)CC2)c1` [Example 66, 4-[3-(2-methoxyethoxy)benzylidene]-N-pyridazin-3-ylpiperidine-1-carboxamide], for which the “hFAAH KInact/K” value amounted to 503 M⁻¹ s⁻¹.

Regarding `O=C(Nc1cccnn1)N1CCC(=Cc2cccc(OCc3cccc(C(F)(F)F)n3)c2)CC1` [Example 71, N-pyridazin-3-yl-4-(3-{[6-(trifluoromethyl)pyridin-2-yl]methoxy}benzylidene)piperidine-1-carboxamide], the “hFAAH KInact/K” value was 294 M⁻¹ s⁻¹.

Turning to `O=C(Nc1cccnn1)N1CCC(=Cc2cccc(OCC3Cc4ccccc4O3)c2)CC1` (centres unmarked) [Example 100, 4-[3-(2,3-dihydro-1-benzofuran-2-ylmethoxy)benzylidene]-N-pyridazin-3-ylpiperidine-1-carboxamide], the “hFAAH KInact/K” value was 2505 M⁻¹ s⁻¹.
